Data taken from patent US12257243B2, “5-hydroxy-7-oxabicyclo[2.2.1]heptane-2-carboxamide derivatives for inducing chondrogenesis for treating joint damage” (NOVARTIS AG, priority 2018, dated 2025).
Where two headings read alike, the source gives them in different places.

Target: ALP in normal human articular chondrocytes (NHACs)
Assay: Alkaline Phosphatase (ALP) activity assay (staining and quantitation) in NHACs, prevention of chondrocyte hypertrophy
Assay type: cell-based
Details: human IL-1 beta 10 ng/mL, 12 days; for IC50: Fast Blue RR staining, high content imaging, read-out: ALP in NHAC IC50; for ALP in NHAC (% Efficacy): value in parentheses
Outline: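 Primary human articular chondrocytes plated at 7,500 cells/well in DMEM with 10% FBS alongside test compound, incubated 5 h at 37 °C, then given IL-1β (10 ng/mL final) for 12 days. Fixed cells stained for ALP with Fast Blue RR/naphthol AS-MX, Hoechst counterstain. Read by fluorescence imaging (561 nm) and/or high-content cell scoring.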

| Molecule | IC50 (listed as 72?) [nM] | ALP in NHAC (% Efficacy) (listed as 72?) [%] | IC50 [nM] | ALP in NHAC (% Efficacy) [%] |
| --- | --- | --- | --- | --- |
| Cn1nc(C(F)(F)F)cc1[C@H]1[C@H]2O[C@H](C[C@@H]2O)[C@@H]1C(=O)Nc1cc(C(F)(F)F)ccc1C#N (single isomer, unassigned) [Example 72b, (1R,2R,3S,4R,5S)—N-(2-cyano-5-(trifluoromethyl)phenyl)-5-hydroxy-3-(1-methyl-3-(trifluoromethyl)-1H-pyrazol-5-yl)-7-oxabicyclo[2.2.1]heptane-2-carboxamide or (1S,2S,3R,4S,5R)—N-(2-cyano-5-(trifluoromethyl)phenyl)-5-hydroxy-3-(1-methyl-3-(trifluoromethyl)-1-pyrazol-5-yl)-7-oxabicyclo[2.2.1]heptane-2-carboxamide] | 1800 | 88 |  |  |
| COc1cc([C@@H]2[C@@H]3O[C@@H](C[C@H]3O)[C@H]2C(=O)Nc2cc(C(F)(F)F)ccc2C#N)ccn1 (single isomer, unassigned) [Example 78a, (1R,2R,3S,4R,5)-N-(2-cyano-5-(trifluoromethyl)phenyl)-5-hydroxy-3-(2-methoxypyridin-4-yl)-7-oxabicyclo[2.2.1]heptane-2-carboxamide or (1S,2S,3R,4S,5R)—N-(2-cyano-5-(trifluoromethyl)phenyl)-5-hydroxy-3-(2-methoxypyridin-4-yl)-7-oxabicyclo[2.2.1]heptane-2-carboxamide] |  |  | 1100 | 100 |
| COc1cc([C@@H]2[C@@H]3O[C@@H](C[C@H]3O)[C@H]2C(=O)Nc2cc(C(F)(F)F)ccc2C#N)ccn1 (single isomer, unassigned) [Example 78b, (1R,2R,3S,4R,5)-N-(2-cyano-5-(trifluoromethyl)phenyl)-5-hydroxy-3-(2-methoxypyridin-4-yl)-7-oxabicyclo[2.2.1]heptane-2-carboxamide or (1S,2S,3R,4S,5R)—N-(2-cyano-5-(trifluoromethyl)phenyl)-5-hydroxy-3-(2-methoxypyridin-4-yl)-7-oxabicyclo[2.2.1]heptane-2-carboxamide] |  |  | 1400 | 88 |
| rac-(1R 2R,3S,4R,5S)—N-(4-fluoro-3-(trifluoromethyl)phenyl-5-hydroxy-3-(1-methyl-3-(trifluoromethyl)-1H-pyrazol-4-yl)-7-oxabicyclo[2.2.1]heptane-2-carboxamide [Example 56] |  |  | > 30000 | 32 |
